How the values were obtained:
[1] = Photoactivation (photo-reduction) of Complex A under 650 nm irradiation, HPLC; type: physicochemical; conditions: mixture of the compound and PPA in the presence of ascorbate
Protocol: FIG. 3 is a combined RP-HPLC chromatogram showing the intensity of Complex A and PPA after 10 μM Complex A in PBS buffer containing 1% DMF and 1 mM ascorbate was subject to irradiation at 650 nm with a power density of 7 mW/cm^2 for different time periods (from 0 min to 30 min). Peak 1 corresponds to Complex A, and Peak 2 corresponds to PPA.
FIG. 4 is a plot showing the amount of Complex A and PPA after subjecting to irradiation at 650 nm calculated from the results in FIG. 3.
The photoactivation property of Complex A was investigated. Buffer solution containing 10 μM Complex A with 1 mM ascorbate in a quartz cuvette was irradiated with LED lamp (650 nm, 7 mW/cm^2) under stirring. Samples were analyzed by HPLC. […] After irradiation for 10 min, 81% of Complex A was reduced, and most of the complex was reduced within 30 min. Irradiation of Complex A without the presence of ascorbate also leads to the release of PPA and oxaliplatin, but the reaction speed is much slower.
The inventors further investigated the mechanism of the reduction Complex A. No overlap was observed between the absorbance spectra of PPA and the dihydroxyl Pt(IV) compound [Pt(DACH)(OH)2(ox)]. […] The normalized fluorescence intensity of PPA and Complex A is identical, and the fluorescence lifetime of Complex A is 7 ns in DMF, which is the same as PPA. […]

[2] = Fluorescence lifetime; type: physicochemical; conditions: in DMF
From the text: The inventors further investigated the mechanism of the reduction Complex A. No overlap was observed between the absorbance spectra of PPA and the dihydroxyl Pt(IV) compound [Pt(DACH)(OH)2(ox)]. Therefore, direct energy transfer may not occur between PPA and the Pt(IV) center. […] The normalized fluorescence intensity of PPA and Complex A is identical, and the fluorescence lifetime of Complex A is 7 ns in DMF, which is the same as PPA. […] Since PPA is able to generate reactive oxygen species (ROS) and singlet oxygen through type I and type II photo process, respectively, the inventors used a hydroxyl radical scavenger, DMSO, and a singlet oxygen scavenger, NaN3, to investigate the electron transfer process. […] Thus, without to be bound by theory, the inventors believe that hydroxy radical is involved in the reaction, and the elimination of hydroxy radical may accelerate the reaction. Furthermore, it was observed that the reduction rate is related to the water content in the system.

[3] = system: A2780 ovarian carcinoma cells; experiment: Cytotoxicity, MTT assay; type: cell-based, human; conditions: 8 h treatment
Protocol: (§1) The biological activity of Complex A was subsequently evaluated. A2780 cells were maintained in Roswell Park Memory Institution (RPMI) 1640 medium supported with 10% FBS, 2 mM L-glutamine, and 100 unit/mL penicillin/streptomycin. MCF-7 cells were cultured in Dulbecco's modified Eagle's medium supported with 10% FBS and 100 unit/mL penicillin/streptomycin. MRC-5 cells were maintained in Eagle's minimum essential medium supported with 10% FBS, 1 mM sodium pyruvate, 2 mM L-glutamine, 1 mM non-essential amino acid and 100 unit/mL penicillin/streptomycin. All the cells were incubated in a humidified incubator at 37° C. with 5% CO2
(§2) Cytotoxicity test was performed by exposing the cancer cells with Complex A. The viability of cancer cells exposed was evaluated by means of MTT assay. Cells were seeded in 96-well plates at a density of 3,000 cells per well and incubated until the cell confluency reached 50%. Then, the medium was removed and replaced with fresh medium containing different concentrations of complexes with 1% DMF. After 8 h, the medium was aspirated, the well was washed with PBS for twice, and Earle's balanced salt solution (EBSS) was added. […] The EBSS was removed, and fresh complete cell culture medium was added to each well. After 40 h, the medium was changed to serum-free medium containing 1 mg/mL MTT. After 2 h additional incubation, the medium was removed, and DMSO (200 μL) was delivered to each well to dissolve the formed purple formazan. The absorbance at 570 nm and 730 nm of each well was measured by using a microplate reader (BioTek PowerWave XS).
(§3) The cytotoxicity of Complex A was then evaluated, using oxaliplatin and PPA as controls. Cells were treated with the compounds for 8 h, followed by irradiation or incubation in the dark, and the cell viability was measured by the MTT assay after 40 h. Complex A is non-toxic to the tested cells in the dark, and is very active under irradiation.

[4] = system: A2780cisR (platinum-resistant A2780 cells); experiment: Cytotoxicity, MTT assay; type: cell-based, human; conditions: for IC50: A2780cisR, 8 h treatment
Protocol: as §1, §2, §3

[5] = system: MCF-7 cells; experiment: Cytotoxicity, MTT assay; type: cell-based, human
Protocol: as §1, §2, §3

[6] = system: MRC-5 normal human lung fibroblasts; experiment: Cytotoxicity, MTT assay; type: cell-based; conditions: in dark, MTT at 40 h
Protocol: as §1
Cytotoxicity test was performed by exposing the cancer cells with Complex A. The viability of cancer cells exposed was evaluated by means of MTT assay. Cells were seeded in 96-well plates at a density of 3,000 cells per well and incubated until the cell confluency reached 50%. Then, the medium was removed and replaced with fresh medium containing different concentrations of complexes with 1% DMF. […] The absorbance at 570 nm and 730 nm of each well was measured by using a microplate reader (BioTek PowerWave XS).
The cytotoxicity of Complex A was then evaluated, using oxaliplatin and PPA as controls. Cells were treated with the compounds for 8 h, followed by irradiation or incubation in the dark, and the cell viability was measured by the MTT assay after 40 h. […]

[7] = system: A2780 cells; experiment: Cellular accumulation of platinum by ICP-MS; type: cell-based, human; conditions: after 8 h
Protocol: FIG. 5 is a plot showing the accumulation of Complex A in A2780 cells after treatment with 0.5 μM Complex A for 1 to 12 h.
The inventors first tested the cellular accumulation of Complex A by ICP-MS. Platinum accumulation in A2780 cells increases dramatically over time before 8 h and very slowly increases over time after 8 h. Thus, an incubation time of 8 h is selected for the following biological assays.
The cellular accumulation levels of Pt in A2780 cells treated with Complex A and oxaliplatin after 8 h are 6.4±1.2 and 0.9±0.1 ng Pt/106 cells, respectively. […] The cellular distribution of Complex A was also observed.

[8] = Homo sapiens, in the dark, MTT at 40 h
[9] = Homo sapiens, light or radiation study, with irradiation at 650 nm (7 mW/cm^2) for 15 min, MTT at 40 h after irradiation
[10] = with irradiation at 650 nm (7 mW/cm^2) for 15 min, MTT at 40 h after irradiation

For “[Pt(DACH)(OH)2(ox)] [[(Pt(DACH)(OH)2(ox))]]”, the reduction under irradiation [1] was “cannot be reduced”.

For C=Cc1c(C)c2cc3nc(c4c5[nH]c(cc6nc(cc1[nH]2)C(C)=C6CC)c(C)c5C(=O)C4)[C@@H](CCC(=O)O)[C@@H]3C [PPA, pyropheophorbide a], the fluorescence lifetime [2] was 7 ns, the IC50 [3, 8] was greater than 10 µM and the IC50 [3, 9] was 0.34 ± 0.05 µM. For the same compound, the IC50 [4, 9] was 0.23 ± 0.01 µM, the IC50 [4, 8] was greater than 10 µM and the IC50 ([5]; Homo sapiens, MCF7, 8 h treatment, in the dark, MTT at 40 h) was greater than 10 µM. The IC50 ([5]; Homo sapiens, MCF7, light or radiation study, 8 h treatment, with irradiation at 650 nm (7 mW/cm^2) for 15 min, MTT at 40 h after irradiation) was 0.2 ± 0.02 µM and the IC50 ([6]; Homo sapiens, MRC5, 8 h treatment) was greater than 10 µM.

In the case of O=C1[O][Pt]2([NH][C@@H]3CCCC[C@H]3[NH]2)[O]C1=O [Oxaliplatin, oxaliplatin], the “cellular accumulation levels of Pt” value [7] is reported as 0.9±0.1 ng Pt/106 cells, the IC50 ([3]; in the dark, MTT at 40 h) is reported as greater than 40 µM and the IC50 [3, 10] is reported as greater than 40 µM. The IC50 ([4]; in the dark, MTT at 40 h) was 162 ± 9 µM, the IC50 [4, 10] was 185 ± 8 µM and the resistant factor ([4]; IC50 towards cisplatin-resistant cells divided by IC50 towards non-resistant cells (A2780cisR / A2780)) was 2.7. It also gave an IC50 ([5]; 8 h treatment, in the dark, MTT at 40 h) of 110 ± 4.3 µM, an IC50 ([5]; 8 h treatment, with irradiation at 650 nm (7 mW/cm^2) for 15 min, MTT at 40 h after irradiation) of 78.6 ± 8.7 µM and an IC50 ([6]; 8 h treatment) of 122 ± 5.2 µM.

Reference: US10899781B2, “Platinum complex, its preparation and therapeutic use” (City University of Hong Kong, priority 2018, dated 2021)
